In PubChem BioAssay (NCI):
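Briefly, cells in 96-well plates were exposed to five compound concentrations for 48 h, and endpoints were estimated by linear interpolation. TGI: concentration producing complete growth inhibition.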

Columns and labels:
Assay in all cases: NCI anticancer screen, dose series, 48 h
[1] = test system: 786-0 renal
[2] = test system: A498 renal
[3] = test system: A549 NSCLC
[4] = test system: ACHN renal
[5] = test system: CCRF-CEM leukemia
[6] = test system: COLO 205 colon
[7] = test system: DLD-1 colon
[8] = test system: DMS 114 small cell lung
[9] = test system: DMS 273 small cell lung
[10] = test system: EKVX NSCLC
[11] = test system: HCC-2998 colon
[12] = test system: HCT-116 colon
[13] = test system: HCT-15 colon
[14] = test system: HL-60(TB) leukemia
[15] = test system: HOP-62 NSCLC
[16] = test system: HT29 colon
[17] = test system: IGROV1 ovarian
[18] = test system: K-562 leukemia
[19] = test system: KM12 colon
[20] = test system: KM20L2 colon
[21] = test system: LOX IMVI melanoma
[22] = test system: LXFL 529 NSCLC
[23] = test system: M14 melanoma
[24] = test system: M19-MEL melanoma
[25] = test system: MALME-3M melanoma
[26] = test system: MOLT-4 leukemia
[27] = test system: NCI-H226 lung
[28] = test system: NCI-H23 lung
[29] = test system: NCI-H460 lung
[30] = test system: NCI-H522 lung
[31] = test system: OVCAR-4 ovarian
[32] = test system: OVCAR-5 ovarian
[33] = test system: OVCAR-8 ovarian
[34] = test system: RPMI-8226 leukemia
[35] = test system: RXF 393 renal
[36] = test system: SF-295 CNS
[37] = test system: SF-539 CNS
[38] = test system: SK-MEL-2 melanoma
[39] = test system: SK-MEL-28 melanoma
[40] = test system: SK-MEL-5 melanoma
[41] = test system: SK-OV-3 ovarian
[42] = test system: SN12C renal
[43] = test system: SNB-19 CNS
[44] = test system: SNB-75 CNS
[45] = test system: SNB-78 CNS
[46] = test system: SR leukemia
[47] = test system: SW-620 colon
[48] = test system: TK-10 renal
[49] = test system: U251 CNS
[50] = test system: UACC-257 melanoma
[51] = test system: UACC-62 melanoma
[52] = test system: UO-31 renal
[53] = test system: XF 498 CNS
[54] = test system: HOP-18 NSCLC
[55] = test system: OVCAR-3 ovarian
[56] = test system: CAKI-1 renal
[57] = test system: HOP-92 NSCLC
[58] = test system: SF-268 CNS
[59] = test system: BT-549 breast
[60] = test system: DU-145 prostate
[61] = test system: HS 578T breast
[62] = test system: MCF7 breast
[63] = test system: MDA-MB-231 breast
[64] = test system: MDA-MB-435
[65] = test system: MDA-N
[66] = test system: NCI/ADR-RES ovarian
[67] = test system: PC-3 prostate
[68] = test system: T-47D breast

Measured: TGI

Cc1ccc(C[P+]2(c3ccccc3)CCCCC2)cc1
42.4 µM: [49]
32.6 µM: [50]
50.5 µM: [24]
33.6 µM: [14]
76.9 µM: [44]
92.4 µM: [45]
24.4 µM: [40]
0.537 µM: [53]
64.1 µM: [8]
85.6 µM: [22]
46.8 µM: [34]
30.2 µM: [6]
66.2 µM: [51]
60.8 µM: [11]
80.6 µM: [38]
90.9 µM: [46]
not listed: [54] | [55] | [56] | [57] | [58] | [59] | [60] | [61] | [62] | [63] | [64] | [65] | [66] | [67] | [68]
> 100 µM: all other assays above

CC(=O)O[C@]1(C)OC(=O)[C@@H](C)N1[N+](=O)[O-]
not listed: [53] | [56] | [57] | [58] | [59] | [60] | [61] | [62] | [63] | [64] | [65] | [66] | [67] | [68]
> 100 µM: all other assays above

O=C1OCCC1C(O)C1c2ccccc2-c2ccccc21 (centres undefined)
not listed: [9] | [11] | [13] | [20] | [21] | [35] | [37] | [40] | [54] | [59] | [60] | [61] | [62] | [63] | [64] | [65] | [66] | [67] | [68]
> 100 µM: all other assays above

COc1cc(-c2cc(=O)c3c(O)c(OC)c(OC)c(OC)c3o2)ccc1O
93.5 µM: [26]
78.3 µM: [48]
68.8 µM: [21]
46.1 µM: [38]
77.3 µM: [15]
79 µM: [42]
81.7 µM: [23]
47.8 µM: [40]
70.1 µM: [45]
44.7 µM: [30]
69.2 µM: [29]
43.1 µM: [13]
77.8 µM: [8]
48 µM: [35]
30.5 µM: [9]
37.2 µM: [17]
60.5 µM: [36]
40.1 µM: [57]
48.4 µM: [33]
35.9 µM: [37]
61.6 µM: [14]
90.7 µM: [3]
76 µM: [41]
17.6 µM: [2]
34.4 µM: [51]
not listed: [6] | [16] | [27] | [31] | [44] | [53] | [56] | [59] | [60] | [61] | [62] | [63] | [64] | [65] | [66] | [67] | [68]
> 100 µM: all other assays above

CSCCC(N)P(C)(=O)O (centres undefined)
not listed: [7] | [8] | [9] | [20] | [22] | [24] | [45] | [53] | [54]
> 100 µM: all other assays above

N/C(=N\N=C\c1c[nH]c2cc(C(F)(F)F)ccc2c1=O)NO
9.03 µM: [44]
not listed: [7] | [8] | [9] | [20] | [22] | [24] | [45] | [53] | [54]
> 10 µM: all other assays above

CCCCCC(=O)Nc1nc[nH]c1C(N)=O
not listed: [7] | [8] | [9] | [20] | [22] | [24] | [45] | [53] | [54]
> 100 µM: all other assays above
